According to ChEMBL document CHEMBL3414456, “Pentacyclic triterpene derivatives possessing polyhydroxyl ring A inhibit gram-positive bacteria growth by regulating metabolism and virulence genes expression” (2015):
≈ marks a conversion by molar mass, not a printed value. Calls of active or inactive are those of the source. The calls are words filed in the database; no cut-off is given here.

Columns and labels:
Bacillus spizizenii [1] = experiment: Downregulation of lytF gene expression in Bacillus subtilis ATCC 6633 at 0.5 x MIC by Q-RT-PCR analysis relative to control; format: functional, organism-based
Streptomyces scabiei [2] = experiment: Antibacterial activity against Streptomyces scabiei CGMCC4.7610246 assessed as growth inhibition at 100 uM after 36 hrs by turbidimetric analysis; format: functional, organism-based
Bacillus spizizenii [3] = experiment: Downregulation of yqhB gene expression in Bacillus subtilis ATCC 6633 at 0.5 x MIC by Q-RT-PCR analysis relative to control; format: functional, organism-based
Staphylococcus aureus [4] = experiment: Upregulation of seaR gene expression in Staphylococcus aureus ATCC 25923 at 0.5 x MIC by Q-RT-PCR analysis relative to control; format: functional, organism-based
Staphylococcus aureus [5] = experiment: Upregulation of hla gene expression in Staphylococcus aureus ATCC 25923 at 0.5 x MIC by Q-RT-PCR analysis relative to control; format: functional, organism-based
Bacillus spizizenii [6] = experiment: Downregulation of mmgD gene expression in Bacillus subtilis ATCC 6633 at 0.5 x MIC by Q-RT-PCR analysis relative to control; format: functional, organism-based
Bacillus spizizenii [7] = experiment: Downregulation of yhdT gene expression in Bacillus subtilis ATCC 6633 at 0.5 x MIC by Q-RT-PCR analysis relative to control; format: functional, organism-based
Staphylococcus aureus [8] = experiment: Upregulation of fmhB gene expression in Staphylococcus aureus ATCC 25923 at 0.5 x MIC by Q-RT-PCR analysis relative to control; format: functional, organism-based
Bacillus spizizenii [9] = experiment: Antibacterial activity against Bacillus subtilis ATCC 6633 assessed as growth inhibition at 100 uM after 24 hrs by turbidimetric analysis; format: functional; conditions: for inhibition of growth at 100 µM: ATCC 6633, 24 h, read-out: GI
Staphylococcus aureus [10] = experiment: Antibacterial activity against Staphylococcus aureus ATCC 25923 assessed as growth inhibition at 100 uM after 24 hrs by turbidimetric analysis; format: functional; conditions: for inhibition of growth at 100 µM: ATCC 25923, 24 h, read-out: GI
Bacillus spizizenii [11] = experiment: Upregulation of ykuD gene expression in Bacillus subtilis ATCC 6633 at 0.5 x MIC by Q-RT-PCR analysis relative to control; format: functional
Escherichia coli = experiment: Antibacterial activity against Escherichia coli ATCC 25922 by serial microplate method; format: functional
Staphylococcus aureus [12] = experiment: Antibacterial activity against […] Staphylococcus aureus ATCC 29213 by serial microplate method; format: functional
Bacillus spizizenii [13] = experiment: Antibacterial activity against Bacillus subtilis ATCC 6633 assessed as growth inhibition after 2 to 24 hrs; format: functional, organism-based
Staphylococcus aureus [14] = experiment: Antibacterial activity against Staphylococcus aureus after 24 hrs; format: functional
Streptomyces scabiei [15] = experiment: Downregulation of necl gene expression in Streptomyces scabiei CGMCC4.7610246 at 0.5 x MIC by Q-RT-PCR analysis relative to control; format: functional, organism-based
Streptomyces scabiei [16] = experiment: Downregulation of murX gene expression in Streptomyces scabiei CGMCC4.7610246 at 0.5 x MIC by Q-RT-PCR analysis relative to control; format: functional, organism-based
Streptomyces scabiei [17] = experiment: Downregulation of txtA gene expression in Streptomyces scabiei CGMCC4.7610246 at 0.5 x MIC by Q-RT-PCR analysis relative to control; format: functional, organism-based
Streptomyces scabiei [18] = experiment: Antibacterial activity against Streptomyces scabiei CGMCC4.7610246 assessed as growth inhibition after 4 to 36 hrs; format: functional, organism-based
Streptomyces scabiei [19] = experiment: Antibacterial activity against Streptomyces scabiei CGMCC4.7610246 assessed as growth inhibition after 36 hrs by turbidimetric analysis; format: functional; conditions: CGMCC4.7610246, 36 h
Streptomyces scabiei [20] = experiment: Antibacterial activity against Streptomyces scabiei CGMCC4.7610246 assessed as killing time at 0.5 x MIC to 4 x MIC; format: functional
Bacillus spizizenii [21] = experiment: Antibacterial activity against Bacillus subtilis ATCC 6633 assessed as growth inhibition after 24 hrs by turbidimetric analysis; format: functional; conditions: ATCC 6633, 24 h
Streptomyces scabiei [22] = experiment: Downregulation of tomA gene expression in Streptomyces scabiei CGMCC4.7610246 at 0.5 x MIC by Q-RT-PCR analysis relative to control; format: functional, organism-based
Staphylococcus aureus [23] = experiment: Antibacterial activity against Staphylococcus aureus ATCC 25923 assessed as growth inhibition after 24 hrs by turbidimetric analysis; format: functional; conditions: ATCC 25923, 24 h
Streptomyces scabiei [24] = experiment: Downregulation of p450 gene expression in Streptomyces scabiei CGMCC4.7610246 at 0.5 x MIC by Q-RT-PCR analysis relative to control; format: functional, organism-based
Streptomyces scabiei [25] = experiment: Downregulation of txtC gene expression in Streptomyces scabiei CGMCC4.7610246 at 0.5 x MIC by Q-RT-PCR analysis relative to control; format: functional, organism-based
Staphylococcus aureus [26] = experiment: Antibacterial activity against Staphylococcus aureus ATCC 25923 assessed as growth inhibition after 2 to 24 hrs; format: functional, organism-based
Staphylococcus aureus [27] = experiment: Potency index, ratio of ampicillin MIC to compound MIC for Staphylococcus aureus ATCC 25923; format: functional
Staphylococcus aureus [28] = experiment: Downregulation of lytM gene expression in Staphylococcus aureus ATCC 25923 at 0.5 x MIC by Q-RT-PCR analysis relative to control; format: functional, organism-based
Staphylococcus aureus [29] = experiment: Downregulation of narG gene expression in Staphylococcus aureus ATCC 25923 at 0.5 x MIC by Q-RT-PCR analysis relative to control; format: functional, organism-based
[30] = test system: Meyerozyma guilliermondii; experiment: Antifungal activity against Candida guilliermondii by serial microplate method; format: functional
Microsporum canis = experiment: Antifungal activity against Microsporum canis by serial microplate method; format: functional
Bacillus subtilis = experiment: Antibacterial activity against Bacillus subtilis; format: functional
Staphylococcus aureus [31] = experiment: Antibacterial activity against Staphylococcus aureus; format: functional

## C[C@H]1[C@H](C)CC[C@]2(C(=O)O)CC[C@]3(C)C(=CC[C@@H]4[C@@]5(C)CC[C@H](O)C(C)(C)[C@@H]5CC[C@]43C)[C@H]12
Bacillus spizizenii [1]
  Activity: Active
Streptomyces scabiei [2]
  growth inhibition (GI): Active
Bacillus spizizenii [3]
  Activity: Active
Staphylococcus aureus [4]
  Activity: Active
Staphylococcus aureus [5]
  Activity: Active
Bacillus spizizenii [6]
  Activity: Active
Bacillus spizizenii [7]
  Activity: Active
Staphylococcus aureus [8]
  Activity: Active
Bacillus spizizenii [9]
  growth inhibition (GI): Active
Staphylococcus aureus [10]
  growth inhibition (GI): Active
Bacillus spizizenii [11]
  Activity: Active

## CC1(C)[C@@H](O)C[C@H](O)[C@]2(C)[C@H]3CC=C4[C@@H]5C[C@](C)(C(=O)O)CC[C@]5(C(=O)O)CC[C@@]4(C)[C@]3(C)CC[C@@H]12
Escherichia coli
  MIC: 16 µg/mL (≈ 31.8 µM)
Staphylococcus aureus [12]
  MIC: 125 µg/mL (≈ 249 µM)

## CC1(C)CC[C@]2(C(=O)O)CC[C@]3(C)C(=CC[C@@H]4[C@@]5(C)[C@H]6O[C@H]6[C@H](O)C(C)(C)[C@@H]5CC[C@]43C)[C@@H]2C1
Bacillus spizizenii [13]
  growth inhibition (GI): Dose-dependent effect
Streptomyces scabiei [2]
  growth inhibition (GI): Active
Bacillus spizizenii [9]
  growth inhibition (GI): Active
Staphylococcus aureus [10]
  growth inhibition (GI): Active

## C[C@H]1[C@H](C)C=C[C@]2(C(=O)O)CC[C@]3(C)C(=CC[C@H]4[C@]5(C)[C@H]([C@H](O)C[C@]43C)C(C)(C)[C@@H](O)[C@H](O)[C@@H]5O)[C@H]12
Staphylococcus aureus [14]
  inhibition zone (IZ): 24 mm

## COC(=O)[C@]12CCC(C)(C)C[C@H]1C1=CC[C@@H]3[C@@]4(C)[C@@H](O)[C@H](O)[C@H](O)C(C)(C)[C@@H]4CC[C@@]3(C)[C@]1(C)CC2
Streptomyces scabiei [15]
  Activity: Active
Streptomyces scabiei [16]
  Activity: Active
Streptomyces scabiei [17]
  Activity: Active
Streptomyces scabiei [18]
  growth inhibition (GI): Dose-dependent effect
Streptomyces scabiei [19]
  MIC: 4 µM (≈ 2.01 µg/mL)
Streptomyces scabiei [20]
  Time: >24 h
Bacillus spizizenii [21]
  MIC: 64 µM (≈ 32.2 µg/mL)
Streptomyces scabiei [22]
  Activity: Active
Staphylococcus aureus [23]
  MIC: ≥ 100 µM
Streptomyces scabiei [24]
  Activity: Active
Streptomyces scabiei [25]
  Activity: Active
Bacillus spizizenii [9]
  inhibition of growth at 100 µM: > 95%
Staphylococcus aureus [10]
  inhibition of growth at 100 µM: > 95%

## CCOC(=O)[C@]12CCC(C)(C)C[C@H]1C1=CC[C@@H]3[C@@]4(C)[C@@H](O)[C@H](O)[C@H](O)C(C)(C)[C@@H]4CC[C@@]3(C)[C@]1(C)CC2
Staphylococcus aureus [26]
  growth inhibition (GI): Dose-dependent effect
Streptomyces scabiei [19]
  MIC: ≥ 100 µM
Bacillus spizizenii [21]
  MIC: 64 µM (≈ 33.1 µg/mL)
Staphylococcus aureus [4]
  Activity: Active
Staphylococcus aureus [5]
  Activity: Active
Staphylococcus aureus [23]
  MIC: 1 µM (≈ 0.517 µg/mL)
Staphylococcus aureus [27]
  Ratio: 2
Staphylococcus aureus [8]
  Activity: Active
Staphylococcus aureus [28]
  Activity: Active
Bacillus spizizenii [9]
  inhibition of growth at 100 µM: > 95%
Staphylococcus aureus [10]
  inhibition of growth at 100 µM: > 95%

## C[C@@]1(C(=O)O)CC[C@]2(C(=O)O)CC[C@]3(C)C(=CC[C@@H]4[C@@]5(C)[C@@H](O)C[C@H](O)[C@](C)(CO)[C@@H]5CC[C@]43C)[C@@H]2C1
Escherichia coli
  MIC: 16 µg/mL (≈ 30.8 µM)
Staphylococcus aureus [12]
  MIC: 63 µg/mL (≈ 121 µM)

## CC(C)OC(=O)[C@]12CC[C@@H](C)[C@H](C)[C@H]1C1=CC[C@@H]3[C@@]4(C)[C@@H](O)[C@H](O)[C@H](O)C(C)(C)[C@@H]4CC[C@@]3(C)[C@]1(C)CC2
Staphylococcus aureus [26]
  growth inhibition (GI): Dose-dependent effect
Bacillus spizizenii [1]
  Activity: Active
Streptomyces scabiei [19]
  MIC: ≥ 100 µM
Bacillus spizizenii [3]
  Activity: inactive
Bacillus spizizenii [21]
  MIC: 4 µM (≈ 2.12 µg/mL)
Staphylococcus aureus [4]
  Activity: Active
Staphylococcus aureus [5]
  Activity: Active
Bacillus spizizenii [6]
  Activity: Active
Staphylococcus aureus [23]
  MIC: 1 µM (≈ 0.531 µg/mL)
Staphylococcus aureus [29]
  Activity: Active
Staphylococcus aureus [27]
  Ratio: 4
Bacillus spizizenii [7]
  Activity: Active
Staphylococcus aureus [8]
  Activity: Active
Bacillus spizizenii [9]
  inhibition of growth at 100 µM: > 95%
Staphylococcus aureus [10]
  inhibition of growth at 100 µM: > 95%
Bacillus spizizenii [11]
  fold change (FC): 2.5

## C[C@@H](O)[C@H]1C(=O)N2C(C(=O)O)=C(SCCNC=N)C[C@H]12 [IMIPENEM ANHYDROUS]
Staphylococcus aureus [14]
  inhibition zone (IZ): 33 mm

## CCOC(=O)[C@]12CC[C@@H](C)[C@H](C)[C@H]1C1=CC[C@@H]3[C@@]4(C)[C@@H](O)[C@H](O)[C@H](O)C(C)(C)[C@@H]4CC[C@@]3(C)[C@]1(C)CC2
Streptomyces scabiei [19]
  MIC: ≥ 100 µM
Bacillus spizizenii [21]
  MIC: 64 µM (≈ 33.1 µg/mL)
Staphylococcus aureus [4]
  Activity: Active
Staphylococcus aureus [5]
  Activity: Active
Staphylococcus aureus [23]
  MIC: 2 µM (≈ 1.03 µg/mL)
Staphylococcus aureus [29]
  Activity: Active
Staphylococcus aureus [27]
  Ratio: 2
Staphylococcus aureus [8]
  Activity: Active
Staphylococcus aureus [28]
  Activity: Active
Bacillus spizizenii [9]
  inhibition of growth at 100 µM: > 95%
Staphylococcus aureus [10]
  inhibition of growth at 100 µM: > 95%

## C[C@H]1[C@H](C)CC[C@]2(C(=O)O)CC[C@]3(C)C(=CC[C@@H]4[C@@]5(C)C[C@@H](O)[C@H](O)C(C)(C)[C@@H]5CC[C@]43C)[C@H]12 [COROSOLIC ACID]
Staphylococcus aureus [12]
  MIC: 7 µg/mL (≈ 14.8 µM)
[30]
  MIC: 11.7 µg/mL (≈ 24.8 µM)
Microsporum canis
  MIC: 8 µg/mL (≈ 16.9 µM)

## CC1(C)CC[C@]2(C(=O)O)CC[C@]3(C)C(=CC[C@@H]4[C@@]5(C)CC[C@H](O)C(C)(C)[C@@H]5CC[C@]43C)[C@@H]2C1
Streptomyces scabiei [15]
  Activity: Active
Streptomyces scabiei [16]
  Activity: Active
Streptomyces scabiei [17]
  Activity: Active
Streptomyces scabiei [2]
  growth inhibition (GI): Active
Staphylococcus aureus [4]
  Activity: Active
Streptomyces scabiei [22]
  Activity: Active
Staphylococcus aureus [5]
  Activity: Active
Streptomyces scabiei [24]
  Activity: inactive
Streptomyces scabiei [25]
  Activity: Active
Staphylococcus aureus [8]
  Activity: Active
Bacillus spizizenii [9]
  growth inhibition (GI): Active
Staphylococcus aureus [10]
  growth inhibition (GI): Active

## CC1OC(OC[C@]2(C)[C@@H](O)[C@@H](O)[C@@H](O)[C@]3(C)[C@H]4CC=C5[C@@H]6[C@@H](C)[C@H](C)CC[C@]6(C)CC[C@@]5(C)[C@]4(C)CC[C@@H]23)C(O)C(O)C1O (some centres undefined)
Bacillus subtilis
  MIC: 15.6 µg/mL (≈ 25.1 µM)
Staphylococcus aureus [31]
  MIC: 31.3 µg/mL (≈ 50.4 µM)
